According to patent publication US9399626B2, “2-thiopyrimidinones” (Pfizer Inc., priority 2011, dated 2016):
Where a name gives a salt, the structure may show the parent alone.

Molecular target: T1, MPO (purified from human polynuclear leukocytes) (Homo sapiens, UniProt P05164)
T1 construct: purified from human polynuclear leukocytes; purchased Calbiochem/EMD Biosciences; host or cells: human polynuclear leukocytes (natural source)
Assay: MPO Amplex Red Activity Assay
Type: biochemical
Conditions: Table 1, 2 μM H2O2, pH 7.4
In short: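 Potency is given as kinact/KI: kobs values from 600 s progress curves, minus the uninhibited rate, are fit against inhibitor concentration. Reactions use 2 μM H2O2, 30 μM Amplex Red, pH 7.4 phosphate buffer with NaCl, DTPA and 2% DMSO, started with […] human MPO. Readout is resorufin fluorescence, catalase background subtracted.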

T1 sequence (P05164 279-745 limits assumed): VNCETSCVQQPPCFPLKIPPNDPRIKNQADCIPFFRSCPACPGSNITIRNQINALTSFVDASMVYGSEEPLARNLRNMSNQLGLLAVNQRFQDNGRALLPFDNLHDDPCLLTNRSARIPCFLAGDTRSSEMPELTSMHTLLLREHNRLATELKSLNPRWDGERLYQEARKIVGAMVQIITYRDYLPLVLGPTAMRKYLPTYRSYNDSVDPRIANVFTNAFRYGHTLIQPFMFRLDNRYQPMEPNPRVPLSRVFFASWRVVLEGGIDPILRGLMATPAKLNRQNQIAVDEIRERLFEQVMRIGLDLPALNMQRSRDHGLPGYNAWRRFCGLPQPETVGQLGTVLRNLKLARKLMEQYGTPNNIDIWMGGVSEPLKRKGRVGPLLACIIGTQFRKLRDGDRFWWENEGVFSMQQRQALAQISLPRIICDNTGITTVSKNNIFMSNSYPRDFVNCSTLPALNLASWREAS
T1 sequence (P05164 165-273 limits assumed): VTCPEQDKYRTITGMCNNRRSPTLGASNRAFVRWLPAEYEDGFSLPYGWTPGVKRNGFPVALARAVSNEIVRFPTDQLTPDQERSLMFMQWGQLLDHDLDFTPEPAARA

Q: How did the “MPO kinact/Ki” value turn out when `COc1ccc(F)cc1-c1cc(=O)[nH]c(=S)n1CCCN` [Example 58, 1-(3-aminopropyl)-6-(5-fluoro-2-methoxyphenyl)-2-thioxo-2,3-dihydropyrimidin-4(1H)-one hydrochloride] was run?
A: Its value is 11700 1/s per M.

Q: For `COc1cc(OC)c(-c2cc(=O)[nH]c(=S)n2CCN)cc1F` [Example 90, 1-(2-aminoethyl)-6-(5-fluoro-2,4-dimethoxyphenyl)-2-thioxo-2,3-dihydropyrimidin-4(1H)-one hydrochloride], which “MPO kinact/Ki” value is on record?
A: Its value is 11600 1/s per M.

Q: `COc1cc(OC)c(-c2cc(=O)[nH]c(=S)n2CCN)cc1Cl` [Example 111, 1-(2-aminoethyl)-6-(5-chloro-2,4-dimethoxyphenyl)-2-thioxo-2,3-dihydropyrimidin-4(1H)-one hydrochloride] was tested. Which “MPO kinact/Ki” value did it give?
A: Its value is 10300 1/s per M.

Q: For `COCCn1c(-c2cc(C(C)C)ccc2OC)cc(=O)[nH]c1=S` [Example 337, 6-(5-isopropyl-2-methoxyphenyl)-1-(2-methoxyethyl)-2-thioxo-2,3-dihydropyrimidin-4(1H)-one], which “MPO kinact/Ki” value is on record?
A: Its value is 13200 1/s per M.

Q: `O=c1cc(-c2cccc3c2OCCO3)n(CCO)c(=S)[nH]1` [Example 47, 6-(2,3-dihydro-1,4-benzodioxin-5-yl)-1-(2-hydroxyethyl)-2-thioxo-2,3-dihydropyrimidin-4(1H)-one] was tested. Which “MPO kinact/Ki” value did it give?
A: The value was 2340 1/s per M.

Q: For `COc1nc2ccccc2cc1-c1cc(=O)[nH]c(=S)n1CCN` [Example 97, 1-(2-aminoethyl)-6-(2-methoxyquinolin-3-yl)-2-thioxo-2,3-dihydropyrimidin-4(1H)-one trifluoroacetate], which “MPO kinact/Ki” value is on record?
A: The value was 6310 1/s per M.

Q: How did the “MPO kinact/Ki” value turn out when `COc1ccc(-c2cc(=O)[nH]c(=S)n2CC(=O)O)c(OC)c1` [Example 89, [6-(2,4-dimethoxyphenyl)-4-oxo-2-thioxo-3,4-dihydropyrimidin-1(2H)-yl]acetic acid] was run?
A: Its value is 276 1/s per M.

Q: Which “MPO kinact/Ki” value does the source give for `COc1ccc(C)cc1-c1cc(=O)[nH]c(=S)n1CCCN` [Example 43, 1-(3-aminopropyl)-6-(2-methoxy-5-methylphenyl)-2-thioxo-2,3-dihydropyrimidin-4(1H)-one hydrochloride] here?
A: Its value is 34600 1/s per M.

Q: For `COCCn1c(-c2ccc(OC)c(F)c2)cc(=O)[nH]c1=S` [Example 315, 6-(3-fluoro-4-methoxyphenyl)-1-(2-methoxyethyl)-2-thioxo-2,3-dihydropyrimidin-4(1H)-one], which “MPO kinact/Ki” value is on record?
A: Its value is 1420 1/s per M.

Q: Which “MPO kinact/Ki” value does the source give for `COc1ccc(-c2cc(=O)[nH]c(=S)n2CCCCNC(=N)N)c(OC)c1` [Example 253, 1-{4-[6-(2,4-dimethoxyphenyl)-4-oxo-2-thioxo-3,4-dihydropyrimidin-1(2H)-yl]butyl}guanidine] here?
A: Its value is 12700 1/s per M.

Q: How did the “MPO kinact/Ki” value turn out when `COc1ccc(F)cc1-c1cc(=O)[nH]c(=S)n1CCO` [Example 28, 6-(5-fluoro-2-methoxyphenyl)-1-(2-hydroxyethyl)-2-thioxo-2,3-dihydropyrimidin-4(1H)-one] was run?
A: The value was 13700 1/s per M.

Q: With `COc1ccc(-c2cc(=O)[nH]c(=S)n2CCNS(C)(=O)=O)c(OC)c1` [Example 257, N-{2-[6-(2,4-dimethoxyphenyl)-4-oxo-2-thioxo-3,4-dihydropyrimidin-1(2H)-yl]ethyl}methanesulfonamide] as the compound, how does the “MPO kinact/Ki” value read?
A: Its value is 3700 1/s per M.

Q: With `COc1ccc(-c2cc(=O)[nH]c(=S)n2CCCSC)c(OC)c1` [Example 227, 6-(2,4-dimethoxyphenyl)-1-[3-(methylthio)propyl]-2-thioxo-2,3-dihydropyrimidin-4(1H)-one] as the compound, how does the “MPO kinact/Ki” value read?
A: The value was 745 1/s per M.

Q: `COCCn1c(-c2cc3ccccc3s2)cc(=O)[nH]c1=S` [Example 323, 6-(1-benzothien-2-yl)-1-(2-methoxyethyl)-2-thioxo-2,3-dihydropyrimidin-4(1H)-one] was tested. Which “MPO kinact/Ki” value did it give?
A: Its value is 10200 1/s per M.

Q: `COc1ccc(-c2cc(=O)[nH]c(=S)n2CC(C)(C)O)c(OC)c1` [Example 194, 6-(2,4-dimethoxyphenyl)-1-(2-hydroxy-2-methylpropyl)-2-thioxo-2,3-dihydropyrimidin-4(1H)-one] was tested. Which “MPO kinact/Ki” value did it give?
A: The value was 2560 1/s per M.

Q: `COc1cc(-c2cc(=O)[nH]c(=S)n2CC(N)=O)c(OC)cc1Cl` [Example 229, 2-[6-(4-chloro-2,5-dimethoxyphenyl)-4-oxo-2-thioxo-3,4-dihydropyrimidin-1(2H)-yl]acetamide] was tested. Which “MPO kinact/Ki” value did it give?
A: The value was 5900 1/s per M.

Q: `COCCn1c(-c2ccccc2CCO)cc(=O)[nH]c1=S` [Example 46, 6-[2-(2-hydroxyethyl)phenyl]-1-(2-methoxyethyl)-2-thioxo-2,3-dihydropyrimidin-4(1H)-one] was tested. Which “MPO kinact/Ki” value did it give?
A: The value was 1110 1/s per M.

Q: Which “MPO kinact/Ki” value does the source give for `COCCn1c(-c2cc(OC)c(OC)c(OC)c2)cc(=O)[nH]c1=S` [Example 342, 1-(2-methoxyethyl)-2-thioxo-6-(3,4,5-trimethoxyphenyl)-2,3-dihydropyrimidin-4(1H)-one] here?
A: Its value is 817 1/s per M.

Q: `COCCn1c(-c2cc(OC)cc(OC)c2)cc(=O)[nH]c1=S` [Example 330, 6-(3,5-dimethoxyphenyl)-1-(2-methoxyethyl)-2-thioxo-2,3-dihydropyrimidin-4(1H)-one] was tested. Which “MPO kinact/Ki” value did it give?
A: The value was 5210 1/s per M.

Q: Which “MPO kinact/Ki” value does the source give for `NCCOc1ccccc1-c1cc(=O)[nH]c(=S)n1CCO` [Example 52, 6-[2-(2-aminoethoxy)phenyl]-1-(2-hydroxyethyl)-2-thioxo-2,3-dihydropyrimidin-4(1H)-one formate] here?
A: Its value is 33.4 1/s per M.

Q: Which “MPO kinact/Ki” value does the source give for `COCCn1c(-c2ccc(OC)nc2)cc(=O)[nH]c1=S` [Example 295, 1-(2-methoxyethyl)-6-(6-methoxypyridin-3-yl)-2-thioxo-2,3-dihydropyrimidin-4(1H)-one] here?
A: The value was 793 1/s per M.

Q: How did the “MPO kinact/Ki” value turn out when `NCCCn1c(-c2ccc3c(c2)OCCO3)cc(=O)[nH]c1=S` [Example 76, 1-(3-aminopropyl)-6-(2,3-dihydro-1,4-benzodioxin-6-yl)-2-thioxo-2,3-dihydropyrimidin-4(1H)-one hydrochloride] was run?
A: Its value is 4190 1/s per M.

Same assay, conditions: Table 1A, 2 μM H2O2, pH 7.4

Q: `COc1ccc(-c2cc(=O)[nH]c(=S)n2CC(=O)N[C@@H]2CC[C@H]2N)c(OC)c1` [Example 441, N-[(1R,2R)-2-aminocyclobutyl]-2-[6-(2,4-dimethoxyphenyl)-4-oxo-2-thioxo-3,4-dihydropyrimidin-1(2H)-yl]acetamide] was tested. Which “MPO kinact/Ki” value did it give?
A: Its value is 3260 1/s per M.

Q: For `COc1ccc(-c2cc(=O)[nH]c(=S)n2CCCN)c(OCCO)c1` [Example 402, 1-(3-aminopropyl)-6-[2-(2-hydroxyethoxy)-4-methoxyphenyl]-2-thioxo-2,3-dihydropyrimidin-4(1H)-one], which “MPO kinact/Ki” value is on record?
A: Its value is 4810 1/s per M.

Q: With `CCNC(=O)Cn1c(-c2ccc(OC)cc2OC)cc(=O)[nH]c1=S` [Example 434, 2-[6-(2,4-dimethoxyphenyl)-4-oxo-2-thioxo-3,4-dihydropyrimidin-1(2H)-yl]-N-ethylacetamide] as the compound, how does the “MPO kinact/Ki” value read?
A: The value was 4070 1/s per M.

Q: `O=c1cc(-c2cc(Cl)ccc2OCCO)n(CCO)c(=S)[nH]1` [Example 425, 6-[5-chloro-2-(2-hydroxyethoxy)phenyl]-1-(2-hydroxyethyl)-2-thioxo-2,3-dihydropyrimidin-4(1H)-one] was tested. Which “MPO kinact/Ki” value did it give?
A: The value was 13400 1/s per M.

Q: For `CNCCN(C)C(=O)Cn1c(-c2ccc(OC)cc2OC)cc(=O)[nH]c1=S` [Example 400, 2-[6-(2,4-dimethoxyphenyl)-4-oxo-2-thioxo-3,4-dihydropyrimidin-1(2H)-yl]-N-methyl-N-[2-(methylamino)ethyl]acetamide], which “MPO kinact/Ki” value is on record?
A: The value was 2650 1/s per M.
